# Test results reported in patent US11971402B2, “Methods and reagents for determination and treatment of organotropic metastasis” (CORNELL UNIVERSITY, priority 2015, dated 2024).
# Assays:
# WI-38 lung fibroblasts = assay: In vitro uptake of 4175-LuT exosomes by WI-38 lung fibroblasts; format: cell-based, human; settings: 10 μg/ml exosomes pre-incubated with peptide 30 minutes at 37° C., one hour with cells
# Method: FIGS. 5A-M show ITGs functionally regulate organotropic exosome uptake and exosome-mediated metastasis. […] For western blot source data, see FIG. 9L. […] The WI-38 cell membrane was labelled with PKH67 dye and 4175-LuT exosomes were labelled with PKH26 dye. 10 μg/ml of exosomes were first incubated with PBS or HYD-1 peptide for 30 minutes at 37° C., followed by one hour incubation with WI-38 cells at 37° C. Excess exosomes were washed and cells were imaged (n=4 for two independent experiments); scale bar, 10 μm. […] For western blot source data, see FIG. 9M. […] Arrows indicate lung metastasis. Scale bar, 500 μm. […] For western blot source data, see FIG. 9N. […] An average of five random fields were counted at 20× magnification (data representative of 2 independent experiment n=3). […] Livers were harvested and analyzed for exosome positive cells by flow cytometry 24 hours post injection (n=4, except for the ITGαvβ5 antibody group, which n=5). […] Livers were digested and exosome-positive cells were quantified by flow cytometry (n=3). […] The lower panels show liver weight quantification (n=4 except for the control and peptide group for which n=3 of one experiment). […] Three days after cells were plated at equal density, cell numbers were counted using a hemocytometer (n=3 in 3 independent experiments). […]
# [1] = test system: 4175-LuT exosome uptake in the lung; assay: Peptide blocking of 4175-LuT exosome uptake in the lung; format: in vivo, mice; settings: 0.06 μM peptide, 30 minutes at 37° C. prior to exosome injection
# Method: FIGS. 6A-D show exosomal ITGβ4 expression functionally contributes to 4175-LuT exosome localization and mediates lung metastasis. FIG. 6A, left upper panels, show NIR whole lung imaging of 4175-LuT, 4175β4KD or 4175-LuT-derived exosomes pre-incubated with RGD or HYD-1 peptides. Scale bar, 5 mm. […] (n=4, except 4175 for which n=6). Error bars, ± s.e.m. *P<0.05; **P<0.01 by one-way ANOVA. The left lower panels show fluorescence microscopy. Arrows indicate exosome foci. Scale bar, 50 μm. […] Error bars, ±s.e.m. ***P<0.001 by one-way ANOVA. FIG. 6B, left panel, show NIR whole lung imaging of 1833-BoT (n=5) or 1833-BoT overexpressing (OE) ITGβ4 (n=4) exosomes. Scale bar, 5 mm. […] Bioluminescence imaging of lung metastasis and quantification of luciferase activity (n=6, data representative of 2 independent experiments) is shown. […]
# To assess lung, liver and bone exosome distribution, exosomes were injected via the retro-orbital venous sinus, the tail vein or intracardially. […] An average of five random fields was counted per sample at 20× magnification and representative pictures were taken at 40× magnification. […] To measure exosome uptake by specific cell types, labelled exosomes were injected 24 hours prior to tissue collection and tissues were analysed for exosome-positive cells by immunofluorescence. […] Whole lung images were analysed by image J software, by red fluorescence area in arbitrary unit (a.u.).
sequence,measurement,setting,value
KIKMVISWKG (Artificial Amino acid HYD-1 peptide),uptake of 4175-LuT exosomes by WI-38 lung fibroblasts in vitro,WI-38 lung fibroblasts,prevented
same,4175-LuT exosome uptake in the lung after pre-incubation with peptide,[1],dramatically reduced
